Laboratory results: patent US9272026B2, “HLA-A*1101-restricted WT1 peptide and pharmaceutical composition comprising the same” (International Institute of Cancer Immunology, Inc., priority 2006, dated 2016)
Where two headings read alike, the source gives them in different places. No end group written: not given here.

Assays:
[1] = system: B-LCL cells pulsed with the same WT1 peptide (BLCL-Ps); test: 51Cr release assay: cytotoxic activity of CTLs induced with WT1 peptide against peptide-pulsed B-LCL cells; conditions: CTLs induced with 20 μg/ml peptide; E/T ratio 1:1 to 30:1; 4 hours; FIGS. 1-9
Description: The PBMCs were then seeded to a 24-well cell culture plate at the density of about 1×10^7 in RPMI 1640 medium containing 10% FCS, and a culture supernatant of B95-8 cells (cells producing EB virus) were added. They were cultured at 37° C. with 5% CO2 for about 1 month. B-LCL cells transformed with EB virus, which are B-cell tumor cells, were obtained. […] B-LCL cells were pulsed by incubating them with 20 μg/ml of WT1251, WT1279, WT1312, WT1313, WT1338, WT1378, WT1386, WT1415 or WT1436 for 2 hours, and irradiated with 80 Gy of radiation. The resulting B-LCL cells (hereinafter referred to as B-LCL cells pulsed with a WT1 peptide) were used as antigen-presenting cells for the following experiments. […]
The cytotoxic activity of CTLs was measured using ^51Cr release assay. […] The amounts of ^51Cr released into the supernatants were measured using a liquid scintillation counter. The cytotoxic activity (%) was determined using the following formula: (^51Cr release in supernatant of sample−Spontaneous ^51Cr release)/(Maximum ^51Cr release−Spontaneous ^51Cr release)×100 wherein Spontaneous ^51Cr release is ^51Cr release observed when the target cells into which ^51Cr had been incorporated were cultured alone under the same condition, and Maximum ^51Cr release is ^51Cr release observed when the target cells into which ^51Cr had been incorporated were completely lysed using 1% Triton X-100.

B-LCLs expressing WT1 [2] = test: 51Cr release assay: cytotoxic activity of CTL against cell expressing WT1 endogenously; conditions: B-LCL into which a human WT1 gene is introduced; FIGS. 1, 2, 4, 5 and 7
Description: (§1) The PBMCs were then seeded to a 24-well cell culture plate at the density of about 1×10^7 in RPMI 1640 medium containing 10% FCS, and a culture supernatant of B95-8 cells (cells producing EB virus) were added. They were cultured at 37° C. with 5% CO2 for about 1 month. B-LCL cells transformed with EB virus, which are B-cell tumor cells, were obtained. […] B-LCL cells were pulsed by incubating them with 20 μg/ml of WT1251, WT1279, WT1312, WT1313, WT1338, WT1378, WT1386, WT1415 or WT1436 for 2 hours, and irradiated with 80 Gy of radiation. The resulting B-LCL cells (hereinafter referred to as B-LCL cells pulsed with a WT1 peptide) were used as antigen-presenting cells for the following experiments.
(§2) 3×10^6 of autologous PBMCs were cultured in a 24-well cell culture plate in complete medium (45% RPMI, 45% AMI-V medium and 10% human AB serum) containing 20 μg/ml of WT1251, WT1279, WT1312, WT1313, WT1338, WT1378, WT1386, WT1415 or WT1436 at 37° C. with 5% CO2 for 1 week to obtain responding cells. 2×10^6 of the resulting responding cells were cocultured with 1×10^6 of the B-LCL cells pulsed with the same WT1 peptide in complete medium for 1 week (first stimulation). The PBMCs were coculutured with the B-LCL cells pulsed with the WT1 peptide three more times (second to fourth stimulations) under the conditions under which 20 IU/ml (final concentration) of IL2 was added as follows: second stimulation: two times every other day from 3 days after the initiation of stimulation; third and fourth stimulations: three times at intervals of one day from the day after the initiation of stimulation. The resulting cells were concentrated using Negative Selection Columns Gravity Feed Kit (StemSp) so that the ratio of CD8-positive T cells became about 80%, and cocultured with the B-LCL cells pulsed with the WT1 peptide (fifth stimulation). CD8-positive T cells (CTLs) obtained 5 days after the final stimulation were used for measurement of the cytotoxic activity.
(§3) The cytotoxic activity of CTLs was measured using ^51Cr release assay. CTL cells (hereinafter referred to as effector cells) were mixed at the ratio (E/T ration) of 1:1 to 30:1 in 200 μl of medium with target cells into which ^51Cr had been incorporated, and cultured in a 96-well cell culture plate at 37° C. with 5% CO2 for 4 hours. B-LCL cells pulsed with the same WT1 peptide as that used for induction of CTLs (BLCL-Ps), and B-LCL cells without pulsing with a WT1 peptide (BLCL-NPs) were used as target cells. After the culture, the supernatants were collected by centrifugation. The amounts of ^51Cr released into the supernatants were measured using a liquid scintillation counter. The cytotoxic activity (%) was determined using the following formula: (^51Cr release in supernatant of sample−Spontaneous ^51Cr release)/(Maximum ^51Cr release−Spontaneous ^51Cr release)×100 wherein Spontaneous ^51Cr release is ^51Cr release observed when the target cells into which ^51Cr had been incorporated were cultured alone under the same condition, and Maximum ^51Cr release is ^51Cr release observed when the target cells into which ^51Cr had been incorporated were completely lysed using 1% Triton X-100.
(§4) The cytotoxic activity of CTLs induced with WT1251, WT1279, WT1313, WT1338 or WT1386 against B-LCLs expressing WT1 was determined using the method described above.

human cells = conditions: HLA-A*2402; Non-patent Document 12; cited from earlier work
B-LCLs expressing WT1 [3] = system: B-LCLs expressing WT1
Description: as §1, §2, §3, §4

[4] = system: human peripheral blood mononuclear cells having HLA-A*0201; conditions: human PBMCs having HLA-A*0201; Non-patent Document 11; cited from earlier work
[5] = system: PBMCs from HLA-A*1101-positive healthy donors; test: Induction of CTL by WT1 peptide dimer and related peptides using PBMCs from HLA-A*1101-positive healthy donors 1-3; format: cell-based, human; conditions: FIGS. 10-14
Description: After the culture, the supernatants were collected by centrifugation.
Abilities of the resulting WT1378 peptide dimer, WT1378 peptide, modified WT1378 peptide (G→I) (SEQ ID No: 11) and modified WT1378 peptide (G→V) (SEQ ID No: 12) as well as WT1379 peptide (SEQ ID No: 13, as disclosed in WO 2002/28414) to induce a CTL were examined using PBMCs from HLA-A*1101-positive healthy donors 1-3 according to the method as described above.

AAGSSSSVK [WT1251]
cytotoxic activity of induced CTLs against BLCL-Ps as compared with BLCL-NPs [1]: damage specifically BLCL-Ps | cytotoxic activity of induced CTLs against cells expressing WT1 gene endogenously (B-LCLs expressing WT1 [2]): have a cytotoxic activity against cells expressing WT1 gene endogenously

CMTWNQMNL (listed as Homo sapiens) [WT1235, WT1 peptide that matches HLA-A*2402]
induction of WT1-specific CTLs (human cells): WT1-specific CTLs (TAK-1) are induced

KTCQRKFSR [WT1386]
cytotoxic activity of induced CTLs against cells expressing WT1 gene endogenously (B-LCLs expressing WT1 [3]): have a cytotoxic activity against cells expressing WT1 gene endogenously

PILCGAQYR [WT1279]
cytotoxic activity of induced CTLs against cells expressing WT1 gene endogenously (B-LCLs expressing WT1 [3]): have a cytotoxic activity against cells expressing WT1 gene endogenously

SASETSEKR [WT1313]
cytotoxic activity of induced CTLs against cells expressing WT1 gene endogenously (B-LCLs expressing WT1 [3]): have a cytotoxic activity against cells expressing WT1 gene endogenously

SHLQMNSRK [WT1338]
cytotoxic activity of induced CTLs against cells expressing WT1 gene endogenously (B-LCLs expressing WT1 [3]): have a cytotoxic activity against cells expressing WT1 gene endogenously

SLGEQQYSV (listed as Homo sapiens) [WH187 peptide]
induction of WT1-specific CTLs [4]: WT1-specific CTLs are induced

WT1379 peptide: known peptide disclosed in WO 2002/28414; differs from WT1378 peptide by one amino acid in the WT1 protein sequence (GVKPFQCKT; listed as Homo sapiens)
ability to induce a CTL [5]: much lower than that of WT1378 peptide
